The target of one data set is T1, human OATP1B1 (Homo sapiens, UniProt Q9Y6L6).
T1 sequence (Q9Y6L6 1-691): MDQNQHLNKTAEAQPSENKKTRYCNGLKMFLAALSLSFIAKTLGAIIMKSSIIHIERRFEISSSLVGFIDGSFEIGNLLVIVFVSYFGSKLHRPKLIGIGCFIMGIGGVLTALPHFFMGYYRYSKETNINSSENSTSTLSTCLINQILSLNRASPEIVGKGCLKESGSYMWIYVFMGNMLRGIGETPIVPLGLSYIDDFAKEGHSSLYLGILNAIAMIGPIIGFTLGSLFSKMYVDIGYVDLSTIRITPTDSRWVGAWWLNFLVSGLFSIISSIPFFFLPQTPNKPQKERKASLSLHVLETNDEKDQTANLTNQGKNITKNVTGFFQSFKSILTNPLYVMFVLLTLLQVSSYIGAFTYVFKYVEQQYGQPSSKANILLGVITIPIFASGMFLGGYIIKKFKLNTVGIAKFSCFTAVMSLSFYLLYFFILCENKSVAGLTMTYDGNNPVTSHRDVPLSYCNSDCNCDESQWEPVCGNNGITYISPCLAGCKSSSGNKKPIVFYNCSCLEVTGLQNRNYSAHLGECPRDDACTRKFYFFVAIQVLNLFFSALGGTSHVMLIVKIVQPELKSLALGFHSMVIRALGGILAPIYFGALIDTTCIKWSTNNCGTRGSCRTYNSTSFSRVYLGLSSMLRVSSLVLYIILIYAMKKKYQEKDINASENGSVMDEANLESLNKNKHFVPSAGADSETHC
As to conditions: for potency difference of the inhibitor for [3H]-EG vs [3H]-ES as OATP1B1 probes: inhibits EG at one-tenth (or lower) the concentration that inhibits ES.

Another data set has as its target human MATE2 (Homo sapiens, UniProt Q86VL8). The data set is described as follows: cell-based.
In data set [1] the target is T2, human OAT3 (Homo sapiens, UniProt Q8TCC7).
T2 sequence (Q8TCC7 1-542): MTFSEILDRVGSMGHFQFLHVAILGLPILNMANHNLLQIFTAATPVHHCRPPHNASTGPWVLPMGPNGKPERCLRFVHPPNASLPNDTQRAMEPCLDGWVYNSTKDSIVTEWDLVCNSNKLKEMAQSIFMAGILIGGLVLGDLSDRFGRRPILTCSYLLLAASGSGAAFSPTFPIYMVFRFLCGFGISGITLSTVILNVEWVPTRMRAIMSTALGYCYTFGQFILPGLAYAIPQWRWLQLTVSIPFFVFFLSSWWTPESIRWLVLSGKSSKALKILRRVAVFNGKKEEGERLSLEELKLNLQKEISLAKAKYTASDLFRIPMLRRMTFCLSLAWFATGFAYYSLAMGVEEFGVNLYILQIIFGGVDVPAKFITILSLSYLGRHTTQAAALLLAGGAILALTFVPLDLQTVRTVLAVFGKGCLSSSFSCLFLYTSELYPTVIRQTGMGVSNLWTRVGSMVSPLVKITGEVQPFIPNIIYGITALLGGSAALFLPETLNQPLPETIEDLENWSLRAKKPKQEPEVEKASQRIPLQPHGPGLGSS
Briefly: cell-based.

For a further data set, the target named is P-gp (Homo sapiens, UniProt P08183). The data set is described as follows: biochemical.
Sequence of P-gp (P08183 whole entry): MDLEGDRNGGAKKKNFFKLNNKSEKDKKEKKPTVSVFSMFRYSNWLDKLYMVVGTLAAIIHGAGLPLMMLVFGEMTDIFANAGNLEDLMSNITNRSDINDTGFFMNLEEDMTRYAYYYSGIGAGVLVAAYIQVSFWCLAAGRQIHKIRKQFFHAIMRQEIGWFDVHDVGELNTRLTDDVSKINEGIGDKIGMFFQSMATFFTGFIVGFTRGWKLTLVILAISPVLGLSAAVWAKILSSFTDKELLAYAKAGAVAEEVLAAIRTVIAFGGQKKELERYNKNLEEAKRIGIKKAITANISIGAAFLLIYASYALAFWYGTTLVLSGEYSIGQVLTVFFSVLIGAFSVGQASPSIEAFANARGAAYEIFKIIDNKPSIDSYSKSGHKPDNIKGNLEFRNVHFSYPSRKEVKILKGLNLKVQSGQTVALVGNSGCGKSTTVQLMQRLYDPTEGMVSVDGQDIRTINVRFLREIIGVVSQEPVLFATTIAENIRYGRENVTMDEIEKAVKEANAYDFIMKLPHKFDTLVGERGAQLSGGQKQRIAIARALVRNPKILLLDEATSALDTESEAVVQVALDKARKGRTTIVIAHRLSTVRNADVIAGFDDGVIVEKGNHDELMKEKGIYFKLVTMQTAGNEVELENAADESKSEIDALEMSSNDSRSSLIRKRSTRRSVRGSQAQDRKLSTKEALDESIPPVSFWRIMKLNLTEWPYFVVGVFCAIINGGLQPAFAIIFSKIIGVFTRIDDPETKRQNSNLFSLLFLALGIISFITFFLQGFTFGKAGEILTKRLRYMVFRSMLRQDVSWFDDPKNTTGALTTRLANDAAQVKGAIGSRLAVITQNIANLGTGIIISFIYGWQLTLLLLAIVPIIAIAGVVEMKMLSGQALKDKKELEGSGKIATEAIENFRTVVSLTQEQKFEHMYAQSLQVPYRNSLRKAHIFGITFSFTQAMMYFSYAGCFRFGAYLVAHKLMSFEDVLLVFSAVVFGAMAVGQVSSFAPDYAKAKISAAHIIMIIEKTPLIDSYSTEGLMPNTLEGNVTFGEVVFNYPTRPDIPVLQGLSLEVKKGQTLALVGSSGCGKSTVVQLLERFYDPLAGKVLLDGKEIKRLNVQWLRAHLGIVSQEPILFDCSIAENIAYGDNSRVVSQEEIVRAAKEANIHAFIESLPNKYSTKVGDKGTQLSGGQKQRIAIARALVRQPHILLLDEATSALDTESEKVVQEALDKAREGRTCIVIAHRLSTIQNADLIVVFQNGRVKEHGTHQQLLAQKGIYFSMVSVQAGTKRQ
For another data set, the target named is T3, human OCT1 (Homo sapiens, UniProt O15245).
T3 sequence (O15245 1-554): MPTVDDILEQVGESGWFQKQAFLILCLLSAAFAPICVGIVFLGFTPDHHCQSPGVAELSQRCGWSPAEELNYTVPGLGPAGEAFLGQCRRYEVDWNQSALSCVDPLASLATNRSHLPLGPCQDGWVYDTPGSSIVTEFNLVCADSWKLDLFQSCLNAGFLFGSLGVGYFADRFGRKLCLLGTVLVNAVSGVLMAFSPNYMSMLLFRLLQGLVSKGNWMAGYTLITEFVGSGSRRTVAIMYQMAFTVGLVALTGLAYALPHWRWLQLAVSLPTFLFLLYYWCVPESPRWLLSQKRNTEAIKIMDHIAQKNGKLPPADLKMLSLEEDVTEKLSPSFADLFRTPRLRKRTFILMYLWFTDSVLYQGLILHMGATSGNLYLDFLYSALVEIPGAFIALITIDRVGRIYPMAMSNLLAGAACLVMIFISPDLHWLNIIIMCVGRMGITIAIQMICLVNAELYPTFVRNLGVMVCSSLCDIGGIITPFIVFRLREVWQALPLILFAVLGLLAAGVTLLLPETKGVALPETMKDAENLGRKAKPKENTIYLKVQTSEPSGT
The data set is described as follows: cell-based.

The target in the next data set is T4, human MATE1 (Homo sapiens, UniProt Q96FL8).
T4 sequence (Q96FL8 1-570): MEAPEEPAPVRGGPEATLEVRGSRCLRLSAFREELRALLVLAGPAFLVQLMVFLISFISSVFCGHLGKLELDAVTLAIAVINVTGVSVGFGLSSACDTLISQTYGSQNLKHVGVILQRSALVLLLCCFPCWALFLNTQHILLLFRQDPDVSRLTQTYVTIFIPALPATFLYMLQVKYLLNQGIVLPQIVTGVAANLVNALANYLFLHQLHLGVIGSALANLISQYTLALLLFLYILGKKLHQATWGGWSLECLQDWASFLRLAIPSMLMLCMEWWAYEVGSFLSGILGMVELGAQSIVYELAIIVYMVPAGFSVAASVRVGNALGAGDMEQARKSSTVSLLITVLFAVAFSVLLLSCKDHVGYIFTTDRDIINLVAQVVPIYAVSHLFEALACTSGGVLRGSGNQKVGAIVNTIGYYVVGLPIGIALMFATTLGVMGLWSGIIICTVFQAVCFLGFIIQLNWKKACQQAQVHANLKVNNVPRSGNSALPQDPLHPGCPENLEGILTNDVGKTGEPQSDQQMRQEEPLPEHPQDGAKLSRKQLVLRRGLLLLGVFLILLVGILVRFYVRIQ

Data set [2] has as its target T2, human OAT3. As to conditions: for Cu,max/IC50 OAT3: human.

Sequence of human MATE2 (Q86VL8 1-566 isoform Q86VL8-3): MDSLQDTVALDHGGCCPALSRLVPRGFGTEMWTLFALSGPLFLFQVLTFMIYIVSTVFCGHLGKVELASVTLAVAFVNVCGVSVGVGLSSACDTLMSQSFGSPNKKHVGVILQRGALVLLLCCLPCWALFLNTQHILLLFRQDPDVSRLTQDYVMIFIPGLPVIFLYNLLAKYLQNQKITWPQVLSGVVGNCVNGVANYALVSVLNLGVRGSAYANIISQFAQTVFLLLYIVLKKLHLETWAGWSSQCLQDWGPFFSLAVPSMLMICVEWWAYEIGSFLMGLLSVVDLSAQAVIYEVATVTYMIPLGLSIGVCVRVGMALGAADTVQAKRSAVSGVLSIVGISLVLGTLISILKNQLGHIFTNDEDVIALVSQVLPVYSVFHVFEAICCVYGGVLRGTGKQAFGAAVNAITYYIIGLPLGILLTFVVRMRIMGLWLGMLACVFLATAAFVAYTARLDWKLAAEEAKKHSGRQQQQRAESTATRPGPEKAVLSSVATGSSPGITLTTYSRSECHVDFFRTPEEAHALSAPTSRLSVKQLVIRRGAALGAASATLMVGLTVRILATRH

On to `CC(C)CN(C[C@@H](O)[C@H](Cc1ccccc1)NC(=O)O[C@H]1CO[C@H]2OCC[C@H]21)S(=O)(=O)c1ccc(N)cc1` [Darunavir], for which the “potency difference of the inhibitor for [3H]-EG vs [3H]-ES as OATP1B1 probes” value at human OATP1B1 is more than 10 fold. The half-inhibitory concentration (IC50) was 30.7 ± 20.2 µM on human MATE2, 37.9 ± 9.5 µM against human OAT3 [1] and 16 µM against P-gp.

Regarding `CCC(CC)COC(=O)[C@H](C)N[P@](=O)(OC[C@H]1O[C@@](C#N)(c2ccc3c(N)ncnn23)[C@H](O)[C@@H]1O)Oc1ccccc1` [Remdesivir], the “potency difference of the inhibitor for [3H]-EG vs [3H]-ES as OATP1B1 probes” value at human OATP1B1 was more than 10 fold. Also, the IC50 at human OCT1 worked out at 10.1 ± 0.01 µM; against human MATE2, 15.2 ± 9.7 µM; at human OAT3 [1] it was 14 ± 1.7 µM; on P-gp it was 14 µM.

For the compound `N#CC[C@H](C1CCCC1)n1cc(-c2ncnc3[nH]ccc23)cn1` [Ruxolitinib], the “Cu,max/IC50 MATE1” value at human MATE1 is reported as 0.04. Besides, the “OAT3 inhibited more potently relative to OAT1” value on human OAT3 [2] is reported as not below 10 fold. For the same compound, at human OAT3 [2], the “Cu,max/IC50 OAT3” value worked out at 0.005. Moreover, the half-inhibitory concentration (IC50) is 9.7 ± 4.3 µM on human OCT1, 3.7 ± 2.3 µM against human MATE2, 6.1 ± 0.6 µM against human OAT3 [1] and more than 100 µM on P-gp.

Regarding `CCCc1nn(C)c2c(=O)[nH]c(-c3cc(S(=O)(=O)N4CCN(C)CC4)ccc3OCC)nc12` [Sildenafil], the “Cu,max/IC50 MATE1” value on human MATE1 is 0.02. In addition, the “OAT3 inhibited more potently relative to OAT1” value on human OAT3 [2] is not below 10 fold. Further, the “Cu,max/IC50 OAT3” value on human OAT3 [2] turned out to be 0.002. Moreover, the IC50 is 19.8 ± 6.4 µM against human OCT1, 14.4 ± 1.3 µM against human MATE2, 20.5 ± 3.1 µM against human OAT3 [1] and 16 µM at P-gp.

In the case of `CCOC(=O)c1c(CSc2ccccc2)n(C)c2cc(Br)c(O)c(CN(C)C)c12` [Umifenovir (Arbidol), Umifenovir], the “Iu,in,max/IC50 OATP1B1” value at human OATP1B1 (human) was 0.93. In addition, on human MATE1, the “Cu,max/IC50 MATE1” value is 0.13. For the same compound, the “Cu,max/IC50 OAT3” value on human OAT3 [2] was 0.002. Moreover, the 50% inhibitory concentration (IC50) against human OCT1 is 1.2 ± 0.1 µM; against human MATE2 it was 4.1 ± 1.6 µM; against human OAT3 [1], 58.6 ± 21.9 µM; on P-gp, 16 ± 2 µM.

Values taken from paper PMC8217266 (Clinical Pharmacology and Therapeutics, 2021).
